In patent US5998521A, “Aqueous fluoropolymer compositions and method of preparing the same” (3M Innovative Properties Company, priority 1996, dated 1999):

How the values were obtained:
bacterial sludge = assay: Bacterial sludge contact test; details: 28 days, ambient conditions
Description: (§1) The environmental stability of C6 F13 CF(CF3)COO^- NH4^+ was investigated under ambient conditions using a bacterial sludge contact test. In this test, bacterial sludge was obtained from the municipal waste treatment plant at Pig's Eye, Minn., the sludge was centrifuged to collect the water-insoluble high density solids, and was reconstituted in water to a standard level of about 2000 ppm of total suspended solids. A 5 mL aliquot of the 2000 ppm sludge in water was placed in each of several 20 mL vials, and enough of the carboxylate salt was added to each vial to achieve a concentration of about 496 ppm (1 millimolar). Each vial was tightly capped with a septum cap and was allowed to stand at room temperature. At intervals, the concentrations of perfluoroolefin and perfluoromonohydride gases in each headspace were measured by removing a gas sample from the space over the liquid, using a Hewlitt Packard Gas Chromatograph with a headspace sampling accessory. The peak areas determined from each gas sample were compared to a standard series made by placing increasing concentrations of a defined mixture of perfluoroolefin and perfluoromonohydride in water in the same types of vials, and subjecting the headspaces in the vials to the same analytical procedure. Results, given below, state the complete conversion relative to theoretical percent of the amount of perfluoroolefin/perfluoromonohydride mixture formed relative to that expected from complete conversion of the salt to volatile fluorocarbons. A control experiment using water with no sludge was also run at the 28 day test point.

[1] = Bacterial sludge contact test
Description: as §1

[2] = Thermogravimetric analysis of neat perfluorocarboxylate salts; format: physicochemical; details: neat salt, nitrogen, 10° C./min
Description: Thermal degradation measurements were made on a series of neat perfluorocarboxylate salts, including several α-branched open chain structures (Examples N2-N9), a primarily linear open chain structure (Example N10-Fluorad™ FC-143 Fluorochemical Surfactant, commercially available from 3M Company, St. Paul, Minn.), and a closed chain (i.e., cyclic) structure (Example N11--made by the electrochemical fluorination of benzoic acid and hydrolysis in the presence of KOH, as described in U.S. Pat. No. 2,567,011 (Diesslin et al.)).
The perfluorocarboxylate salts were tested using a Perkin-Elmer TGA 7 thermogravimetric analysis apparatus and a salt sample size of approximately 5 mg, a heating rate of 10° C./min, and a nitrogen gas flow rate of 40-45 mL/min. Using the TGA 7 software, the following temperatures were recorded: (1) the onset temperature of decomposition, (2) the temperature at which 50% of the sample weight was lost, and (3) the temperature at which 90% of the sample weight was lost.

O=C(O)C(F)(C(F)(F)F)C(F)(F)C(F)(F)C(F)(F)C(F)(F)C(F)(F)C(F)(F)F (stereo not shown) [Example M16, C6 F13 CF(CF3)COO^- H4 N^+]
effect of sludge on amount of perfluoroolefin/perfluoromonohydride (bacterial sludge): more than doubled | percent perfluoroolefin/perfluoromonohydride formed at 672 h, 1000 µM ([1]; Day 28, no sludge): 32% | percent perfluoroolefin/perfluoromonohydride formed at 24 h, 1000 µM ([1]; bacterial sludge, Day 1, with sludge): 4% | percent perfluoroolefin/perfluoromonohydride formed at 96 h, 1000 µM ([1]; bacterial sludge, Day 4, with sludge): 13% | percent perfluoroolefin/perfluoromonohydride formed at 168 h, 1000 µM ([1]; bacterial sludge, Day 7, with sludge): 23% | percent perfluoroolefin/perfluoromonohydride formed at 336 h, 1000 µM ([1]; bacterial sludge, Day 14, with sludge): 44% | percent perfluoroolefin/perfluoromonohydride formed at 672 h, 1000 µM ([1]; bacterial sludge, Day 28, with sludge): 70% | Temperature for: 50% loss [2]: 179 °C | Temperature for: 90% loss [2]: 193 °C | Temperature for: Onset [2]: 165 °C
